Activity calls are given as the source filed them. No rule for the calls is given here.
Each compound was assayed against Ubiquitin-conjugating enzyme E2 N (Homo sapiens) (UniProt P61088) (assay: UBE2N binders by NMR, biophysical, purified protein (AID 1552)). Details: NMR binding to purified UBE2N.
Ubiquitin-conjugating enzyme E2 N (Homo sapiens), sequence (P61088 whole entry, looked up): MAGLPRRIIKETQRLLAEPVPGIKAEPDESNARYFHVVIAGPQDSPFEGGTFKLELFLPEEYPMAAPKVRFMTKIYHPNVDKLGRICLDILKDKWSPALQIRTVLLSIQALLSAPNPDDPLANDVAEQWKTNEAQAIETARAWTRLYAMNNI
With `Cc1cc(C)n(/N=C\c2cccs2)c(=O)c1C(N)=O` the Kd was > 4 mM (inactive). In the case of `Cc1cc(NC(=O)CSc2nncn2C)no1`, the Kd is reported as > 4 mM (inactive). In the case of `NC(=O)CSc1nc2ncnc(N)c2[nH]1`, the Kd is reported as > 4 mM (inactive). For `CSc1ccccc1NC(=O)c1ccoc1C`, the Kd was > 4 mM (inactive). `Cc1nnsc1C(=O)N(C)c1ccccc1` was tested, and the Kd was > 4 mM (inactive). With `O=C(O)CN1CCNCC1` the Kd was > 4 mM (inactive). With `COc1ccc2c(c1)OC/C(=C/c1ccc(OC)c(OC)c1)C2=O` the Kd was > 4 mM (inactive). In the case of `NC(=O)c1ccsc1N`, the Kd is reported as > 4 mM (inactive). `Cc1cc(C)c2ccc[n+]([O-])c2c1O` was tested, and the Kd was > 4 mM (inactive). With `CC(C)=CCOc1cc2oc(=O)ccc2cc1O` the Kd was > 4 mM (inactive). With `N#CCSc1nnc2ccc3ccccc3n12` the Kd was > 4 mM (inactive). `O=CN1CCN(C2CC(=O)N(c3ccccc3)C2=O)CC1` (centres undefined) was tested, and the Kd was > 4 mM (inactive). For `CC(=O)c1c(O)n(C)c(=S)n(C)c1=O`, the Kd was > 4 mM (inactive). In the case of `CCOC(=O)Nc1ccc2c(C)cc(=O)oc2c1`, the Kd is reported as > 4 mM (inactive). `Cc1cc(-c2ccccc2)nc2cc(C(N)=O)nn12` was tested, and the Kd was > 4 mM (inactive). `C[C@@H]1CC[C@@]23CCC4(C)[C@@](C=CC5[C@@]6(C)CC[C@H](O)C(C)(C)C6CC[C@]54C)(OC2=O)C3[C@H]1C` (some centres undefined) was tested, and the Kd was > 4 mM (inactive). For `Oc1ccc(-n2ccnc2)cc1`, the Kd was > 4 mM (inactive). In the case of `O=C(Nc1c[nH]c(=O)[nH]c1=O)c1cccs1`, the Kd is reported as > 4 mM (inactive). In the case of `O=C(CCc1n[nH]c(=O)[nH]c1=O)NCc1ccccc1`, the Kd is reported as > 4 mM (inactive). `Cc1nc2ccc(C(=O)O)cc2[nH]1` was tested, and the Kd was > 4 mM (inactive). `NC(=O)c1c(Cl)nsc1-c1ccccc1Cl` was tested, and the Kd was > 4 mM (inactive). `O=C(O)CNC(=O)c1ccccc1` was tested, and the Kd was > 4 mM (inactive). `NN1C(=O)CSC1=Nc1ccccc1` was tested, and the Kd was > 4 mM (inactive). In the case of `C=CCn1c(N)c(C(=O)N2CCOCC2)sc1=S`, the Kd is reported as > 4 mM (inactive). In the case of `O=C(CN1C(=O)CCC1=O)c1ccccc1`, the Kd is reported as > 4 mM (inactive). In the case of `CCc1cc2c(SCC(=O)O)ncnc2s1`, the Kd is reported as > 4 mM (inactive). For `C=C1C([C@]2(C)C(CC(=O)OC)[C@@](C)(COC(C)=O)OC(=O)C[C@@H]2OC(C)=O)[C@@H](OC=O)[C@H](OC(=O)C(O)C(C)CC)[C@@]2(C)[C@H](c3ccoc3)CC(=O)C12O` (some centres undefined), the Kd was > 4 mM (inactive). With `O=C(NN1CCOCC1)c1cccs1` the Kd was > 4 mM (inactive). In the case of `Cc1ccc(-c2nn(C)c(=O)c3ccccc23)cc1CO`, the Kd is reported as > 4 mM (inactive). For `Fc1ccc(CN2CCCNCC2)cc1`, the Kd was > 4 mM (inactive). For `O=C(O)C1CSC2(CCCCC2)N1` (centres undefined), the Kd was > 4 mM (inactive). In the case of `COCC(=O)Nc1cccc(Br)c1`, the Kd is reported as > 4 mM (inactive). In the case of `CC1(C)CC[C@]2(C)CC[C@]3(C)C(=CCC4[C@@]5(C)CC[C@H](O)C(C)(C)C5CC[C@]43C)C2C1` (some centres undefined), the Kd is reported as > 4 mM (inactive). With `CC(C)=CCc1c2c(c3occ(-c4ccc(O)c(O)c4)c(=O)c3c1O)C=CC(C)(C)O2` the Kd was > 4 mM (inactive). In the case of `c1ccc(-c2csc(Nc3cccnc3)n2)nc1`, the Kd is reported as > 4 mM (inactive). With `O=C1C(=O)N(CN2CCN(CCO)CC2)c2ccccc21` the Kd was > 4 mM (inactive). With `CCC(=O)n1nc(-c2ccco2)nc1N` the Kd was > 4 mM (inactive). With `Cc1nnc(SCC(=O)N2CCc3ccccc32)s1` the Kd was > 4 mM (inactive). `O=C(Nc1nncs1)Oc1ccccc1` was tested, and the Kd was > 4 mM (inactive). In the case of `COc1ccc(-c2cc(=O)c3c(OC)c(OC)c(OC)c(OC)c3o2)cc1`, the Kd is reported as > 4 mM (inactive). With `O=S1(=O)C=CC(N2CCCCC2)C1` (centres undefined) the Kd was > 4 mM (inactive). In the case of `O=C(CS(=O)(=O)c1ccccc1)Nc1nccs1`, the Kd is reported as > 4 mM (inactive). In the case of `NS(=O)(=O)c1ccc(NC(=O)C2CC2)cc1`, the Kd is reported as > 4 mM (inactive). In the case of `CC(=O)Nc1ccc(NC(=O)C2CC2)cc1`, the Kd is reported as > 4 mM (inactive). `Cc1ccc2nc(SCC(=O)O)nc(C)c2c1` was tested, and the Kd was > 4 mM (inactive). With `NCCN=C1NS(=O)(=O)c2ccccc21` the Kd was > 4 mM (inactive). `O=C1CSC(=O)N1CNc1ccccc1` was tested, and the Kd was > 4 mM (inactive). With `CC(C)=NNC(=O)C(=O)NC(C)(C)C` the Kd was > 4 mM (inactive). For `NC(=O)c1cccnc1Oc1ccccc1`, the Kd was > 4 mM (inactive). With `Cc1ccc(-c2nc(-c3cccnc3)no2)cc1` the Kd was > 4 mM (inactive). With `CC(=O)c1cnc2nc(C(F)(F)F)nn2c1C` the Kd was > 4 mM (inactive). `CN1C(=O)C(Cc2c[nH]c3ccccc23)C(=O)N(C)C1=O` was tested, and the Kd was > 4 mM (inactive). For `CCOC(=O)N1CCN(c2ncnc3c2cnn3C)CC1`, the Kd was > 4 mM (inactive). With `O=C(Nc1cccnc1)c1cccs1` the Kd was > 4 mM (inactive). In the case of `COC1CC(O[C@H]2CC[C@]3(C=O)C4CC[C@]5(C)C(C6=CC(=O)OC6)CC[C@]5(O)C4CC[C@]3(O)C2)OC(C)C1O` (some centres undefined), the Kd is reported as > 4 mM (inactive). In the case of `Cc1nn(CC(=O)Nc2ccccc2)c(=O)c2ccccc12`, the Kd is reported as > 4 mM (inactive). In the case of `Cc1nc2ccccc2c(=O)n1NC(=O)C1CCCCC1`, the Kd is reported as > 4 mM (inactive). With `CN(C)C(=O)c1ccc(-c2n[nH]c(=O)c3ccccc23)cc1` the Kd was > 4 mM (inactive). For `Cn1c(=O)c2[nH]cnc2n(C)c1=O`, the Kd was > 4 mM (inactive). With `O=C(Nc1ccccc1)c1cnc2n(c1=O)CCS2` the Kd was > 4 mM (inactive). With `N[C@@H](Cc1cc(I)c(Oc2cc(I)c(O)c(I)c2)c(I)c1)C(=O)O` the Kd was > 4 mM (inactive). `O=C1NC2NC(=O)N(c3ccccc3)C2N1` (centres undefined) was tested, and the Kd was > 4 mM (inactive). In the case of `CCCCCC(=O)Cc1cc(O)cc(O)c1C(=O)Oc1cc(CC(=O)CCCCC)c(C(=O)O)c(OC)c1`, the Kd is reported as > 4 mM (inactive). For `O=C1CC(=O)N(Cc2ccco2)C(=S)N1`, the Kd was > 4 mM (inactive). `O=C(Nc1ccon1)c1csc2c1CCCC2` was tested, and the Kd was > 4 mM (inactive). With `Cn1c(SCC(N)=O)nnc1-c1c[nH]c2ccccc12` the Kd was > 4 mM (inactive). With `O=c1[nH]c(CN2CCN(CCO)CC2)nc2ccccc12` the Kd was > 4 mM (inactive). `Nc1nonc1-c1nc2ccccc2[nH]1` was tested, and the Kd was > 4 mM (inactive). For `CC(=O)Nc1ccccc1OCC(N)=O`, the Kd was > 4 mM (inactive). In the case of `Nc1nc(NCc2ccco2)nn1-c1ccccc1`, the Kd is reported as > 4 mM (inactive). For `Cc1cc(C)n2c(SCc3cccs3)nnc2n1`, the Kd was > 4 mM (inactive). `O=C(Nc1ccccc1)Nc1ccccc1` was tested, and the Kd was > 4 mM (inactive). With `S=C(NC1CC1)NN1CCOCC1` the Kd was > 4 mM (inactive). For `Cc1cc(C)n(S(=O)(=O)c2ccc(C)c(C)c2C)n1`, the Kd was > 4 mM (inactive). `Cn1c(=O)c2[nH]cnc2n(-c2ccccc2)c1=O` was tested, and the Kd was > 4 mM (inactive). With `Cc1cc(C)nc(Nc2n[nH]c(Cc3ccccc3)n2)n1` the Kd was > 4 mM (inactive). In the case of `COc1ccc2c(c1)O[C@@H]1COc3cc(OC)c(OC)cc3[C@@H]1C2=O`, the Kd is reported as > 4 mM (inactive). With `COCCn1c(C)cc(O)cc1=O` the Kd was > 4 mM (inactive). For `CC(CCC(=O)O)[C@H]1CCC2C3C(C[C@H](O)[C@@]21C)[C@@]1(C)CC[C@@H](O)C[C@H]1C[C@H]3O` (some centres undefined), the Kd was > 4 mM (inactive). In the case of `O=c1cccc2n1CC1CC2CN2CCCC[C@@H]12` (some centres undefined), the Kd is reported as > 4 mM (inactive). For `Cc1cc(C(=O)c2c(C)nn(C)c2Cl)n(C)n1`, the Kd was > 4 mM (inactive). `Cc1ccccc1N1CCN(C(=O)C2CCCCC2)CC1` was tested, and the Kd was > 4 mM (inactive). In the case of `Cn1c(SCCC(=O)O)nnc1-c1cccnc1`, the Kd is reported as > 4 mM (inactive). `O=C(O)c1cccnc1` was tested, and the Kd was > 4 mM (inactive). `Cc1cc(NS(=O)(=O)Cc2ccccc2)no1` was tested, and the Kd was > 4 mM (inactive). With `Cn1cnc([N+](=O)[O-])c1Sc1ncnc2nc[nH]c12` the Kd was > 4 mM (inactive). In the case of `COC(=O)c1cccnc1Oc1ccccc1`, the Kd is reported as > 4 mM (inactive). `COC(=O)C1=C(C)N(c2cccc(C(C)=O)c2)C(=O)C1` was tested, and the Kd was > 4 mM (inactive). With `Cc1ncoc1C(=O)Nc1ccccc1C(N)=O` the Kd was > 4 mM (inactive). In the case of `O=C(NCc1ccccc1)c1ccc[n+]([O-])c1`, the Kd is reported as > 4 mM (inactive). With `COc1ccc2c(c1OC)C(=O)N(c1ncn[nH]1)C2` the Kd was > 4 mM (inactive). In the case of `CC1(C)CC(=O)c2sc(N)nc2C1`, the Kd is reported as > 4 mM (inactive). For `Cc1nn(-c2ccccc2)nc1C(=O)O`, the Kd was > 4 mM (inactive). In the case of `O=C(O)C1CNc2ccccc2O1` (centres undefined), the Kd is reported as > 4 mM (inactive). With `COc1ccc(NC(=O)CCCC(=O)O)c(OC)c1` the Kd was > 4 mM (inactive). For `Nc1cccc(S(=O)(=O)N2CCOCC2)c1`, the Kd was > 4 mM (inactive). In the case of `O=C1C2CC=CCC2C(=O)N1c1ccccc1` (centres undefined), the Kd is reported as > 4 mM (inactive). With `NC(=O)C1CCN(C(=S)c2cccs2)CC1` the Kd was > 4 mM (inactive). For `Cc1cc(C(=O)NN2CCOCC2)c(C)o1`, the Kd was > 4 mM (inactive). `COc1ccc2[nH]cc(CCNC(C)=O)c2c1` was tested, and the Kd was > 4 mM (inactive). For `Cc1n[nH]c(C)c1N`, the Kd was > 4 mM (inactive). `NCCC(=O)N[C@@H](Cc1cnc[nH]1)C(=O)O` was tested, and the Kd was > 4 mM (inactive). With `COC(=O)CSc1n[nH]c(N)n1` the Kd was > 4 mM (inactive). In the case of `O=S1(=O)NC(=NCc2ccco2)c2ccccc21`, the Kd is reported as > 4 mM (inactive). In the case of `NC1=NC(=O)/C(=C/c2cccs2)S1`, the Kd is reported as > 4 mM (inactive). In the case of `Cc1ccc2c(c1)CCCN2C(=O)c1ccncc1`, the Kd is reported as > 4 mM (inactive). For `O=C(O)Cn1cc(C(F)(F)F)ccc1=O`, the Kd was > 4 mM (inactive). For `CSc1nc2nc(C)cc(=O)n2[nH]1`, the Kd was > 4 mM (inactive). With `COC(=O)c1scc(S(C)(=O)=O)c1-n1cccc1` the Kd was > 4 mM (inactive). With `COc1ccc2cc1Oc1ccc(cc1)C[C@H]1c3c(cc4c(c3Oc3cc5c(cc3OC)CCN(C)[C@@H]5C2)OCO4)CCN1C` the Kd was > 4 mM (inactive). `Cc1ccccc1NC(=O)CSc1ccnc(=O)[nH]1` was tested, and the Kd was > 4 mM (inactive). For `O=C(CC1CCCCC1)N1CCN(c2ccccn2)CC1`, the Kd was > 4 mM (inactive). `Nc1ccc(C(=O)NCC2CCCO2)cc1` (centres undefined) was tested, and the Kd was > 4 mM (inactive). For `CCC1=Nc2ccccc2-c2nnc(SC)nc2O1`, the Kd was > 4 mM (inactive). With `NCC(O)c1ccc(O)cc1` (centres undefined) the Kd was > 4 mM (inactive). With `COc1cc(OC)c2c(=O)c(-c3ccc4c(c3)OCO4)coc2c1` the Kd was > 4 mM (inactive). In the case of `Cc1[nH]c2ccccc2c1Cc1n[nH]c(=S)n1C`, the Kd is reported as > 4 mM (inactive). For `Nc1ccc(N2CCOCC2)cc1`, the Kd was > 4 mM (inactive). In the case of `CN(C)c1n[nH]c(=O)[nH]c1=O`, the Kd is reported as > 4 mM (inactive).

Reference: PubChem BioAssay AID1552 (Sanford-Burnham Center for Chemical Genomics, 2009)
